Patent EP0457908A1, “HYDROCHLORIDE 2,3,3a,4,5,6-HEXAHYDRO-8-CYCLOHEXYL-1H-PYRAZINO (3,2,1-j,k)CARBAZOL, METHOD OF OBTAINING IT AND A PHARMACEUTICAL PREPARATION OF ANTIDEPRESSIVE ACTION BASED ON IT” (priority 1989, dated 1991)
Structures can show the parent of a compound that is named as a salt.

Columns and labels:
white mice [1] = test: Porsolt's swimming behaviour test (duration of immobilization); format: in vivo; settings: for Duration of immobilization, %: distilled water = 100
Method: The effect of the compound according to the present invention on the duration of immobilization in Porsolt's swimming behaviour test (Porsolt et al., 1977) in experiments on white mice of both sexes with a mass of 16-18 g. […] Sixty minutes after the last (or a single) administration of the preparations, the mice were placed into cylinders (10 cm diameter, 25 cm height) filled with water to 6 cm. The temperature of water was 21-22 °C. […] The number and duration of all stops in swimming (immobilization) over the observation period were recorded.

white rats = test: Stereotypy induced by d,l-amphetamine; format: in vivo; settings: distilled water = 100
Method: To evaluate the influence on stereotypy, the experiments were carried out on white rats of both sexes with a mass of 100-150 g. […] Stereotypy was assessed in points of from to 3 (after Janssen et al., 1967).

male white mice = test: Hyperlocomotion induced by d,l-amphetamine; format: in vivo; settings: 10-20 minutes after d,l-amphetamine 2.5 mg/kg intraperitoneally, distilled water 1,924.5±177.6
Method: The influence on hyperlocomotion induced by d,l-amphetamine was studied in experiments on male white mice with a mass of 20-22 g.
The locomotive activity of the mice was recorded 10-20 minutes after administration of d,l-amphetamine for 10 minutes.

cats = test: Bioelectrical activity of the brain (electroencephalogram), cats; format: in vivo; settings: for effect on the electroencephalogram: dose and species not given
Description: The study of the effect on the bioelectrical activity of the brain was effected in acute experiments using 8 consious cats immobilized with diplacin with a mass of 2.5-3.4 kg under conditions of a controlled breathing and 25 rabbits with a mass of 2.6-3.1 kg with chronically implanted electrodes. Recorded on an electroencephalograph was an electroencephalogram of the sensomotor, parietal and visual regions of the cerebral cortex in cats, plus that of the reticular formation of the midbrain, dorsal hippocamp and amygdala in rabbits.

male rats = test: Conditional reflex of passive avoidance after amnesia (antiamnestic effect); format: in vivo; settings: for Number of rats, %, remained on the platform for 1 minute, 2.5 hours after administration of scopolamine (1 mg/kg hypodermally): amnesia control 10±3.3, distilled water 85±2.0; for Number of rats, %, remained on the platform for 1 minute, 1 day after electric shock: electroshock alone 14.2±3.0, distilled water 85±2.0
Method: Also studied was the effect of the compound according to the present invention on reproduction of the memory traces upon amnesia.
The experiments were carried out using male rats of a mass of 180-220 g.
The antiamnestic effect of the compound according to the present invention was assessed by the method of a conditional reflex of a passive avoidance with a subsequent use, as amnesic factors, of an electric shock (50 mA, 0.3 ms) through ear electrodes or scopolamine (1 mg/kg hypodermally).
The learning of the conditional reflex of a passive avoidance was effected by the "Step-down" method (Izquerdo, 1981) in an experimental unit consisting of a 30x30x40 cm chamber with an electrified floor having in its centre a plastic platform of 10x15x0.5 cm size. A rat was placed onto the platform and a latent period of its escape therefrom was recorded (in seconds). When escaping the platform onto the floor, the rat was subjected to an electric irritation on paws (0.5 mA, 10 seconds) that made it to climb the platform. The learning course took 6 sessions, each of 3 minutes duration. The conditional response was regarded as acquired if an animal remained on the platform for 1 minute.
The amnesic effect was produced immediately after learning course and 30 minutes thereafter the compound according to the present invention was administered in the doses of 1 and 3 mg/kg or (for comparison) pyracetam was administered in the doses of 100, 300, 600 and 1,000 mg/kg. The reproduction of the memory trace was assessed 24 hours after the electric shock and 2.5 hours after administration of scopolamine.

white mice [2] = test: Enhancement of the effect of 5-hydroxytryptophane (head shaking); format: in vivo; settings: Mus musculus, po, 25 min; orally, 60 minutes prior to 5-hydroxytryptophane 50 mg/kg intraperitoneally; read 25 minutes after; read-out: ED₅₀, the dose at which head shaking were noticed in 50% of the animals
Method: The compound according to the present invention was tasted for the exciting effect of 5-hydroxytryptophane (head shaking).
The compound according to the present invention in the doses of 1.0, 2.5, 5.0 and 10 mg/kg was administered orally 60 minutes prior to an intraperitoneal administration of 5-hydroxytryptophane (50 mg/kg).

[3] = Pharmacokinetics: penetration into and stay in the brain tissues; settings: in vivo
[4] = 5-days' administration, 10.0 mg/kg orally (dose from row order)
[5] = 5-days' administration, 25.0 mg/kg orally (dose from row order)
[6] = 18-days' administration, 10.0 mg/kg orally (dose from row order)
[7] = 18-days' administration, 25.0 mg/kg orally (dose from row order)
[8] = single administration, 10.0 mg/kg orally
[9] = single administration, 25.0 mg/kg orally

Structure (SMILES) | Duration of immobilization, Seconds, M±m (white mice [1]; [4]) | Duration of immobilization, % (white mice [1]; [4]) | Duration of immobilization, Seconds, M±m (white mice [1]; [5]) | Duration of immobilization, % (white mice [1]; [5]) | Duration of immobilization, Seconds, M±m (white mice [1]; [6]) | Duration of immobilization, % (white mice [1]; [6]) | Duration of immobilization, Seconds, M±m (white mice [1]; [7]) | Duration of immobilization, % (white mice [1]; [7]) | Duration of immobilization, Seconds, M±m (white mice [1]; [8]) | Duration of immobilization, % (white mice [1]; [8]) | Duration of immobilization, % (white mice [1]; [9]) | Stereotypy (tolal, for 4 measurements for 4 hours after hypodermal administration of d,l-amphetamine), % (white rats; oral dose 5.0 mg/kg) | Stereotypy (tolal, for 4 measurements for 4 hours after hypodermal administration of d,l-amphetamine), % (white rats; oral dose 10.0 mg/kg) | Average value of locomotor activity of a group of 5 mice for 10 minutes (male white mice; 5.0 mg/kg oral) | Average value of locomotor activity of a group of 5 mice for 10 minutes (male white mice; 10.0 mg/kg oral) | effect on the electroencephalogram (cats) | further results
CN(C)CCCN1c2ccccc2CCc2ccccc21 [Imipramine, N-(3-dimethylaminopropyl)-aminodibenzyl hydrochloride] | 92 ± 5.9 s | 59% | 61 ± 6.3 s | 39% | 96 ± 9.8 s | 52% | 66 ± 9.8 s | 36% | 131 ± 5.6 s | 88% | 70% | 200% | 306% | 1,440.3±365.2 | 2,024.5±221.7 | synchronizing effect | 
NC(=O)CN1CCCC1=O [Pyracetam] |  |  |  |  |  |  |  |  |  |  |  |  |  |  |  |  | Number of rats, %, remained on the platform for 1 minute, 2.5 hours after administration of scopolamine (1 mg/kg hypodermally) (male rats; 100 mg/kg oral): 12±5.5%; Number of rats, %, remained on the platform for 1 minute, 1 day after electric shock (male rats; 100 mg/kg oral): 12±3.3%; Number of rats, %, remained on the platform for 1 minute, 2.5 hours after administration of scopolamine (1 mg/kg hypodermally) (male rats; 300 mg/kg oral): 13±1.6%; Number of rats, %, remained on the platform for 1 minute, 1 day after electric shock (male rats; 300 mg/kg oral): 13±4.2%; Number of rats, %, remained on the platform for 1 minute, 2.5 hours after administration of scopolamine (1 mg/kg hypodermally) (male rats; 600 mg/kg oral): 20±5.5%; Number of rats, %, remained on the platform for 1 minute, 1 day after electric shock (male rats; 600 mg/kg oral): 12±3.3%; Number of rats, %, remained on the platform for 1 minute, 1 day after electric shock (male rats; 1000 mg/kg oral): 46±6.4%
Cc1ccc2c(c1)c1c3n2CCNC3CCC1 (stereo not shown) [Pyrazidol, 2,3,3a,4,5,6-hexahydro-8-methyl-1H-pyrazino(3,2,1-j,k)-carbazole hydrochloride] | 142 ± 5.7 s | 87% | 116 ± 8.1 s | 71% | 129 ± 8.0 s | 70% | 112 ± 8.6 s | 61% | 164 ± 5.9 s | 93% | 82% | 165% | 210% | 1,440.0±380.2 | 1,926.0±119.9 |  | Duration of immobilization, Seconds, M±m (white mice [1]; [9]): 144 ± 9.9 s; ED50 (white mice [2]): 20 mg/kg; effect on the electroencephalogram of the cortex and subcortical structures of the brain (cats; 1 to 5 mg/kg intravenously, species not specified): predominantly activating effect; time the drug remains in the brain tissues [3]: at most 1.5 hours
CN(C)CCC=C1c2ccccc2CCc2ccccc21 [amitryptyline, reference compound] |  |  |  |  |  |  |  |  |  |  |  |  |  |  |  | synchronizing effect | 
